Source: ChEMBL document CHEMBL1151296, “Ipomopsin, a New Biscoumarin from Ipomopsis aggregata” (J Nat Prod, 1984)
Calls of active or inactive are those of the source. The calls are words filed in the database; no cut-off is given here.

Key:
KB = assay: Cytotoxicity against human KB cells; format: functional, cell-based
P388 = assay: Cytotoxicity against mouse P388 cells; format: functional, cell-based

`COc1cc2cc(-c3c(O)c(OC)cc4ccc(=O)oc34)c(=O)oc2cc1O` was tested, and the Activity (KB) was “inactive” and the Activity (P388) was “inactive”.
